The values that follow come from patent publication US11236047B2 (ASTEX THERAPEUTICS LIMITED, priority 2017, dated 2022).

In data set [1] the test system is Molm-13 AML cell line. Nature of the data set: Combination protocol for measuring apoptosis (cleaved caspase-3), Molm-13. Conditions: SGI-110 10 nM daily for three days, isoindolinone 20 nM added on third day, 24 hrs, alone or combined, vehicle control 8.72. The data set is classed as cell-based. The procedure: (§1) Combination Protocol for Measuring Apoptosis
(§2) SGI-110 was added daily for three days. […] Percentage apoptosis was measured as percentage fluorescent cells with cleaved caspase-3 in a Guava easyCyte HT cytometer (Millipore). Cleaved caspase-3 staining was recorded in the FL1 channel, with unstained and DMSO control wells being used to set the gated stained and unstained cell populations.
(§3) Table 1 summarises the % apoptosis seen in Molm-13, MV-4-11, or ML-2 with the indicated compound treatments.

Data set [2] has as its system MV-4-11 AML cell line. Kind of data set: Combination protocol for measuring apoptosis (cleaved caspase-3), MV-4-11. The note with it: SGI-110 10 nM daily for three days, isoindolinone 20 nM added on third day, 24 hrs, alone or combined, vehicle control 13.69. It is filed as cell-based. The procedure: as §1, §2, §3
The test system of data set [3] is ML-2 AML cell line. Nature of the data set: Combination protocol for measuring apoptosis (cleaved caspase-3), ML-2. The data set is classed as cell-based. The note with it: SGI-110 10 nM daily for three days, isoindolinone 100 nM added on third day, 24 hrs, alone or combined, vehicle control 3.32. On the procedure:
as §1, §2, §3

The test system of data set [4] is Molm-13 AML cell line. Kind of data set: Combination protocol for proliferation in dose matrix (Alamar blue), Molm-13. It is filed as cell-based. On the procedure: (§4) Combination Protocol for Proliferation in Dose Matrix
(§5) AML cell lines were seeded onto 96-well tissue culture plates in triplicates at a concentration of 1×10^4 cells/well. […] At the end of compound treatment, 20 μl Alamar blue was added. After further 5-6 hr incubation at 37° C. the plates were read on a Spectramax Gemini reader (Molecular Devices; excitation 535 nm, emission 590 nm).

For data set [5], the system named is MV-4-11 AML cell line. Nature of the data set: Combination protocol for proliferation in dose matrix (Alamar blue), MV-4-11. The data set is classed as cell-based. On the procedure:
as §4, §5
Background: Alamar Blue is a resazurin reagent that responds to reducing activity.

Data set [6] relates to ML-2 AML cell line. Kind of data set: Combination protocol for proliferation in dose matrix (Alamar blue), ML-2. The data set is classed as cell-based. The procedure:
as §4, §5

The test system of data set [7] is LINE-1 DNA methylation. Kind of data set: LINE-1 DNA methylation in blood samples, repeat dose study. It is filed as in vivo. Conditions: monkeys; 3 mg/kg subcutaneously 3x weekly; until day 22; p<0.05 vs level prior to initial dosing.
From the text: Blood samples were drawn periodically to assay LINE-1 DNA methylation.
The nature of data set [8]: Tolerability of subcutaneous SGI-110 formulation in rabbits. It is filed as in vivo. On the procedure: (§6) The formulation was well-tolerated in the species tested. […] Rabbits tolerated the 5-day regimen well, up to a dose of 1.5 mg/kg/day, which is equivalent to […] in humans, and the weekly regimen up to a dose of 1.5 mg/kg/week for 3 weeks.
Data set [9] can be described thus: Tolerability of subcutaneous SGI-110 formulation in cynomolgus monkeys. It is filed as in vivo. On the procedure: as §6
(§7) Cynomolgus monkeys tolerated the weekly regimen well, up to a dose of 3.0 mg/kg/week for 3 weeks, which is equivalent to […]. Rats tolerated much higher doses: 30 mg/kg/day over 5 days; and 20 mg/kg twice weekly for 4 weeks.

Data set [10] in a line: Tolerability of subcutaneous SGI-110 formulation in rats. It is filed as in vivo. On the procedure: as §6, §7
The conditions of data set [11]: in vivo, sc.
Method: Three regimens were evaluated: a) once daily subcutaneous dose in rats and rabbits for 5 days; b) once weekly subcutaneous dose in rabbits and cynomolgus monkeys for 28 days as tolerated; and c) twice weekly subcutaneous dose in rats for 28 days as tolerated.
Setting [12] is: SGI-110 0 μM + isoindolinone 0.001 μM.
The mark [13] stands for this setting: SGI-110 0 μM + isoindolinone 0.003 μM.
Where [14] appears, read: SGI-110 0 μM + isoindolinone 0.01 μM.
Setting [15] is: SGI-110 0 μM + isoindolinone 0.03 μM.
Where [16] appears, read: SGI-110 0 μM + isoindolinone 0.1 μM.
Where [17] appears, read: SGI-110 0 μM + isoindolinone 0.3 μM.
[18] abbreviates: SGI-110 0 μM + isoindolinone 1 μM.
Where [19] appears, read: SGI-110 0 μM + isoindolinone 3 μM.
The mark [20] stands for this setting: SGI-110 0 μM + isoindolinone 10 μM.

In the case of `CC[C@@](O)(c1cc(F)c2c(c1)C(=O)N([C@H](c1ccc(Cl)cc1)[C@H](C)C(=O)O)[C@@]2(OC)c1ccc(Cl)cc1)C1CCOCC1` [(2S,3S)-3-(4-chlorophenyl)-3-[(1R)-1-(4-chlorophenyl)-7-fluoro-5-[(1S)-1-hydroxy-1-(oxan-4-yl)propyl]-1-methoxy-3-oxo-2,3-dihydro-1H-isoindol-2-yl]-2-methylpropanoic Acid], the “% Apoptosis” value worked out at 32.48% in data set [1], 30.83% in data set [2] and 15.15% in data set [3]. The “Percentage viability relative to DMSO control” value in data set [4] (setting [12]) is on record as 98%; in [4] (setting [13]), 99%; in data set [4] (setting [14]), 84%; in data set [4] (setting [15]), 52%; in data set [4] (setting [16]), 37%; in [4] (setting [17]), 27%. Further, the “Percentage viability relative to DMSO control” value in data set [4] (setting [18]) is given as 24%; in data set [4] (setting [19]), 22%; in [4] (setting [20]), 15%; in data set [5] (setting [12]), 92%; in data set [5] (setting [13]) it was 82%; in data set [5] (setting [14]), 70%. Also, the “Percentage viability relative to DMSO control” value was 54% in data set [5] (setting [15]); 29% in data set [5] (setting [16]); 16% in data set [5] (setting [17]); 13% in data set [5] (setting [18]); 13% in data set [5] (setting [19]); 12% in [5] (setting [20]). Further, the “Percentage viability relative to DMSO control” value came out at 100% in data set [6] (setting [12]); 94% in [6] (setting [13]); 78% in data set [6] (setting [14]); 59% in data set [6] (setting [15]); 47% in data set [6] (setting [16]); 30% in data set [6] (setting [17]). The “Percentage viability relative to DMSO control” value was 16% in data set [6] (setting [18]), 15% in data set [6] (setting [19]) and 9% in [6] (setting [20]).

Regarding `Nc1ncn([C@H]2C[C@H](OP(=O)(O)OC[C@H]3O[C@@H](n4cnc5c(=O)[nH]c(N)nc54)C[C@@H]3O)[C@@H](CO)O2)c(=O)n1` [SGI-110, 2′-deoxy-5-azacytidylyl-(3′5′)-2′-deoxy-guanosine], the “LINE-1 DNA methylation” value in [7] is “Decreases in LINE-1 DNA methylation”. Further, the “tolerated dose, once daily subcutaneous dose for 5 days” value in [8] (SGI-110 sodium salt 100 mg/mL in glycol/glycerin/ethanol (65:25:10)) is no more than 1.5 mg/kg/day. In addition, the “tolerated dose, once weekly subcutaneous regimen” value is no more than 1.5 mg/kg/week in data set [8] (for 3 weeks) and no more than 3.0 mg/kg/week in [9] (cynomolgus monkeys, for 3 weeks). The “equivalent dose of tolerated weekly regimen dose” value in data set [9] (from cynomolgus monkeys 3.0 mg/kg/week) was found to be 36 mg/kg/week. In data set [10] (over 5 days), the “tolerated dose, once daily subcutaneous regimen” value was determined as 30 mg/kg/day. Moreover, in data set [10] (twice weekly for 4 weeks), the “tolerated dose, twice weekly subcutaneous regimen” value was 20 mg/kg. Also, the “% Apoptosis” value amounted to 36.08% in [1], 26.12% in [2] and 3.93% in data set [3]. Besides, the myelosuppression and recovery entry in [11] is “less myelosuppression and faster recovery”.
